Experimental findings from paper PMC11996864, “A small-molecule inhibitor of BCL10-MALT1 interaction abrogates progression of diffuse large B cell lymphoma” (The Journal of Clinical Investigation, 2025) are described below.

Assay [1] deals with OCI-Ly1 cells. As to the kind of experiment: Apoptosis, annexin V/SYTOX Blue flow cytometry. The class given is cell-based, human. The procedure: Cell proliferation, viability, and apoptosis assays. […]
Annexin V Alexa 488
(ThermoFisher Scientific, Cat# A13201) and SYTOX Blue Dead Cell (ThermoFisher Scientific, Cat# S34857) stains were used to detect apoptosis in DLBCL cells after treatment with 1 µM compounds for 8 days in TMD8 and OCI-Ly1 and for 5 days in OCI-Ly3 cells, then analyzed with flow cytometry. The percentages of cells in early and late apoptosis were combined for quantification. For CellTrace Violet, CellTiter-glo, and Annexin V apoptosis assays, cell were cultured in media with 50% of the usual serum. […]
On the technique in general: A flow cytometer gives signals particle by particle.

Assay [2] relates to IKKα/β phosphorylation in Jurkat T cells. Nature of the assay: IKKα/β phosphorylation after CD3/CD28 stimulation (MALT1 scaffolding activity). The class given is cell-based, human. The settings on record: for pIKK (normalized): Jurkat, 1 μM; for IKK phosphorylation: result in words. The procedure:
Western blot analysis of RelB and N4BP1 cleavage was used to test the effect of small molecules on MALT1 protease activity. To this end, 3 million Jurkat T cells were pretreated with compounds for 24 hours in serum-free media, and then 5 μM MG-132 was added for 1 hour before stimulation with CD3/CD28 (Stemcell Technologies, catalog 10971), and lysed in RIPA buffer (Millipore, catalog 20-188) with protease and phosphatase inhibitor cocktail (Pierce, catalog 78446). IKKα/β phosphorylation and IκBα phosphorylation were used as measures of MALT1 scaffolding activity, while ERK1/2 phosphorylation was used as a control. Two million Jurkat T cells were treated with 1 μM M1i-124, 1 μM M1i-124d1, or DMSO in serum-free media for 16 hours, stimulated with CD3/CD28 for 0, 5, 10, or 20 minutes, and then immediately lysed in RIPA buffer with protease and phosphatase inhibitors. For experiments evaluating RelB cleavage and phosphorylation of IκBα in TMD8 cells, cells were treated with compounds for 24 hours in media containing 5% FBS. For RelB Western blot analysis, 5 μM MG-132 (Cell Signaling Technology, catalog 2194s) was added 4 hours before lysis in RIPA lysis buffer with protease/phosphatase inhibitors.

Assay [3] deals with IL-2 secretion from primary mouse splenocytes. Nature of the assay: Secreted IL-2 ELISA, stimulated primary splenocytes. The class given is cell-based. The following applies: for IL-2 protein level (% of control): Suppl Fig. 4B. An excerpt: Plasmids. Plasmids for transfection were verified with Sanger Sequencing. Unless otherwise indicated, plasmids were made by subcloning cDNA fragments from constructs described in previous publications, as noted, and/or site directed mutagenesis. Plasmids in the pcDNA3 or pcDNA3.1 backbone include HA-MALT1(isoform B) (2), HA-MALT1(DD+Ig1-2) (aa 1- […]
MALT1(Ig1-2) V189R, HA-MALT1(Ig1-2) W203_Q205delinsAAA (Vector Builder), HA-MALT1(Ig1-2) H257_Q259delinsAAA (Vector Builder), HA-MALT1(Ig1-2)
P254_P256delinsAAA (Vector Builder), HA-MALT1(Ig1-2) H269_T271delinsAAA (Vector Builder), HA-MALT1(Ig1-2) K272_L274delinsAAA (Vector Builder), HA-MALT1 V189R (Vector Builder), HA-MALT1 V81R, HA-BCL10 (GeneCopoeia, Cat# M0769-M07), HA-BCL10 E53R, Myc-BCL10 (previously called CIPER) (3), Myc-BCL10 E53R, Myc-RICK (4), Myc-MAVS (subcloned from FLAG-MAVS (5)), and empty vector pCDNA3.1HA as a control.
ELISA-based protein-protein interaction assay. On a high-binding 96-well ELISA microplate (Greiner Cat# 655061), 100 ng of His-tagged recombinant human full-length BCL10 protein (Novus Cat# NBP1-99064) or in 100 µl PBS was allowed to adhere overnight at 4°C. The plate was blocked with 5% BSA in PBS for 1 hour at room temperature. After washing twice with PBS-T, a mixture of 100 ng of GST-tagged recombinant human full-length MALT1 protein (Novus Biologicals Cat# H00010892-P01) and compound that was preincubated for 1 hour in 100 μl PBS was added to the plate for 1 hour at room temperature. After washing three times with PBS-T, anti-MALT1 antibody (Cell Signaling Technology, Cat# 2494) in 5% BSA in PBS was added at 1:1000 dilution for 1 hour at room temperature. After washing three times with PBS-T, HRP-conjugated secondary antibody in 5% BSA in PBS was added at 1:5000 dilution for 1 hour at room temperature. After washing three times with PBS-T, 100 µl of 3,3’,5,5’-tetramethylbenzidine (TMB) substrate solution (Thermo Scientific, Cat# 34028) was added for up to 15 minutes, and 100 µl of 2 M sulfuric acid was added to stop the reaction. The plate was read at 450 nm using a spectrophotometer (Molecular Devices SpectraMax i3). The MyoD1/ID ELISA was performed as above except that 100 ng of recombinant human His-tagged MyoD1 (Proteintech, Cat# Ag13186) was plated overnight at 4°C prior to the addition of 100 ng of recombinant human GST-ID1 (Proteintech, Cat# Ag13359) preincubated to with compounds. The anti-GST antibody (clone 26H1, Cell signaling Technology, Cat #2624) was used to detect bound ID1.
Cytokine ELISAs. Cytokines in cell culture supernatants were measured 20-24h after treatment with 0, 0.01, 0.03, 0.1, 0.3, 1, or 3 µM of compounds using the following ELISA kits according to the manufacturer’s instructions: Human IL-2 ELISA (BioLegend Cat# 431804), Human IL-6 ELISA (BioLegend Cat# 430504), and Human IL-10 ELISA (BioLegend Cat# 430604). TMD8 and OCI-Ly3 cells were treated with specific doses of compounds in serum-free media for 20 hours. Jurkat T cells were pretreated with specific doses of compounds for 8 hours in serum-free media, then stimulated with PMA/ionomycin for 16 hours prior to the collection of supernatants.
Mouse splenocytes were isolated from spleens of C57/BL6 mice by passing spleens through a 70 micron filter followed by red blood cell lysis using ACK lysing buffer (Quality Biologics, Cat# 118-156-101). […]
Mouse T-Activator CD3/C28. Supernatant was collected at 24 hours and mouse IL-2 levels were analyzed via ELISA (R&D Systems, Cat# DY402-05).
Background: ELISA stands for enzyme-linked immunosorbent assay.

Assay [4] concerns OCI-Ly3 cells. As to the kind of experiment: Cell proliferation, trypan blue cell count. The following applies: OCI-Ly3, single 1 μM dose, 12 days, result in words. Format: cell-based, human. An excerpt:
Cell proliferation, viability, and apoptosis assays. Starting with ~20,000 DLBCL cells in 5% FBS
at day 0, cell number was counted using the trypan blue dye exclusion method with Vi-CELL cell

Several values for one entry are separate records, joined by “and”; a condition that tells them apart may be missing. Equal entries are not always repeated.

Turning to `O=S(=O)(NCc1ccc2c(c1)OCO2)c1ccc(Cc2ccc(S(=O)(=O)NCc3ccc4c(c3)OCO4)cc2)cc1` [M1i-124], the “Annexin (% positivity)” value in assay [1] (Ly1, individual replicates) was 14.6% and 13.45% and 17.85%. Further, the “pIKK (normalized)” value in assay [2] (CD3/CD28 0 min) was 0.4315 and 0.5112 and 0.3213 and 0.2741 and 0.4341. For the same compound, in assay [2], the IKK phosphorylation result was “reduced IKK phosphorylation”. Moreover, in assay [3] (1 μM, PMA/Iono or anti-CD3/CD28, result in words), the “IL-2 secretion from primary mouse splenocytes” value is “reduced IL-2 secretion”. Further, the “IL-2 protein level (% of control)” value in assay [3] (CD3/CD28 treated) is 50.4652 % of control and 31.9351 % of control and 38.7736 % of control; in assay [3] (PMA/Iono treated), 60.6294 % of control and 65.2902 % of control and 36.6638 % of control. Also, the “expansion of culture (proliferation)” value in assay [4] is reported as “significant reduction in the expansion”.
Take `COc1ccc(CNS(=O)(=O)c2ccc(Cc3ccc(S(=O)(=O)NCc4ccc(OC)cc4)cc3)cc2)cc1` [M1i-124d1]: the “Percent Apoptotic cells” value in assay [1] (OCI-Ly1) is 9.94% and 10.39% and 9.5% and 11.36% and 12.09% and 11.72%. In addition, the “pIKK (normalized)” value in assay [2] (CD3/CD28 10 min) is 0.3485 and 0.3518 and 0.2777 and 0.3582 and 0.2291. For the same compound, the IKK phosphorylation entry in assay [2] is on record as “reduced IKK phosphorylation”. Further, the “expansion of culture (proliferation)” value in assay [4] is “significant reduction in the expansion”.
Take `CN1CCCC(CN2c3ccccc3Sc3ccccc32)C1` (stereo not shown) [Mepazine, mepazine, reference compound]: the “IL-2 protein level (% of control)” value in assay [3] (CD3/CD28 treated, 1 uM) was 96.0182 % of control and 76.5551 % of control; in assay [3] (PMA/Iono treated, 1 uM) it was 66.5904 % of control and 66.2291 % of control.
